# Tested on: Bacillus cereus
# Assay: Antibacterial activity against Bacillus cereus ATCC 11778 assessed as inhibition of visible bacterial growth incubated for 18 hrs by CLSI protocol based assay
# Assay type: functional
row,SMILES,MIC
1,C[C@H]1O[C@]12[C@@H](O)O[C@H]1[C@]2(C)O[C@]2(O)C(=O)c3c(O)cccc3C(=O)[C@@]12O,> 128 µg/mL
2,C[C@H]1O[C@@H]2O[C@@H]3C4C(=O)c5cccc(O)c5C(=O)C4O[C@]3(C)[C@@]21O (some centres undefined),8 µg/mL
3,CC(C)Cc1nc([C@H](C)C(=O)O)c(C(C)C)n(O)c1=O,128 µg/mL

# Tested on: Staphylococcus aureus
# Assay: Antibacterial activity against methicillin-resistant Staphylococcus aureus clinical isolate 10B assessed as inhibition of visible bacterial growth incubated for 18 hrs by CLSI protocol based assay
# Assay type: functional
row,SMILES,MIC
1,C[C@H]1O[C@]12[C@@H](O)O[C@H]1[C@]2(C)O[C@]2(O)C(=O)c3c(O)cccc3C(=O)[C@@]12O,128 µg/mL
2,C[C@H]1O[C@@H]2O[C@@H]3C4C(=O)c5cccc(O)c5C(=O)C4O[C@]3(C)[C@@]21O (some centres undefined),4 µg/mL
3,CC(C)Cc1nc([C@H](C)C(=O)O)c(C(C)C)n(O)c1=O,128 µg/mL

# Tested on: Staphylococcus aureus
# Assay: Antibacterial activity against methicillin-resistant Staphylococcus aureus clinical isolate 3B assessed as inhibition of visible bacterial growth incubated for 18 hrs by CLSI protocol based assay
# Assay type: functional
row,SMILES,MIC
1,C[C@H]1O[C@]12[C@@H](O)O[C@H]1[C@]2(C)O[C@]2(O)C(=O)c3c(O)cccc3C(=O)[C@@]12O,> 128 µg/mL
2,C[C@H]1O[C@@H]2O[C@@H]3C4C(=O)c5cccc(O)c5C(=O)C4O[C@]3(C)[C@@]21O (some centres undefined),4 µg/mL
3,CC(C)Cc1nc([C@H](C)C(=O)O)c(C(C)C)n(O)c1=O,128 µg/mL

# Tested on: Staphylococcus epidermidis
# Assay: Antibacterial activity against Staphylococcus epidermidis ATCC 12228 assessed as inhibition of visible bacterial growth incubated for 18 hrs by CLSI protocol based assay
# Assay type: functional
row,SMILES,MIC
1,C[C@H]1O[C@]12[C@@H](O)O[C@H]1[C@]2(C)O[C@]2(O)C(=O)c3c(O)cccc3C(=O)[C@@]12O,64 µg/mL
2,C[C@H]1O[C@@H]2O[C@@H]3C4C(=O)c5cccc(O)c5C(=O)C4O[C@]3(C)[C@@]21O (some centres undefined),2 µg/mL
3,CC(C)Cc1nc([C@H](C)C(=O)O)c(C(C)C)n(O)c1=O,64 µg/mL

# Tested on: Bacillus subtilis
# Assay: Antibacterial activity against Bacillus subtilis ATCC 6633 assessed as inhibition of visible bacterial growth incubated for 18 hrs by CLSI protocol based assay
# Assay type: functional
row,SMILES,MIC
1,C[C@H]1O[C@]12[C@@H](O)O[C@H]1[C@]2(C)O[C@]2(O)C(=O)c3c(O)cccc3C(=O)[C@@]12O,> 128 µg/mL
2,C[C@H]1O[C@@H]2O[C@@H]3C4C(=O)c5cccc(O)c5C(=O)C4O[C@]3(C)[C@@]21O (some centres undefined),4 µg/mL
3,CC(C)Cc1nc([C@H](C)C(=O)O)c(C(C)C)n(O)c1=O,128 µg/mL

# Tested on: Escherichia coli
# Assay: Antibacterial activity against Escherichia coli ATCC 8739 assessed as inhibition of visible bacterial growth incubated for 18 hrs by CLSI protocol based assay
# Assay type: functional
row,SMILES,MIC
1,C[C@H]1O[C@]12[C@@H](O)O[C@H]1[C@]2(C)O[C@]2(O)C(=O)c3c(O)cccc3C(=O)[C@@]12O,> 128 µg/mL
2,C[C@H]1O[C@@H]2O[C@@H]3C4C(=O)c5cccc(O)c5C(=O)C4O[C@]3(C)[C@@]21O (some centres undefined),> 128 µg/mL
3,CC(C)Cc1nc([C@H](C)C(=O)O)c(C(C)C)n(O)c1=O,> 128 µg/mL

# Tested on: Staphylococcus aureus
# Assay: Antibacterial activity against Staphylococcus aureus ATCC 9144 assessed as inhibition of visible bacterial growth incubated for 18 hrs by CLSI protocol based assay
# Assay type: functional
row,SMILES,MIC
1,C[C@H]1O[C@]12[C@@H](O)O[C@H]1[C@]2(C)O[C@]2(O)C(=O)c3c(O)cccc3C(=O)[C@@]12O,128 µg/mL
2,C[C@H]1O[C@@H]2O[C@@H]3C4C(=O)c5cccc(O)c5C(=O)C4O[C@]3(C)[C@@]21O (some centres undefined),2 µg/mL
3,CC(C)Cc1nc([C@H](C)C(=O)O)c(C(C)C)n(O)c1=O,128 µg/mL

# Tested on: Mycolicibacterium smegmatis
# Assay: Antibacterial activity against Mycobacterium smegmatis ATCC 607 assessed as inhibition of visible bacterial growth incubated for 48 hrs by CLSI protocol based assay
# Assay type: functional
row,SMILES,MIC
1,C[C@H]1O[C@]12[C@@H](O)O[C@H]1[C@]2(C)O[C@]2(O)C(=O)c3c(O)cccc3C(=O)[C@@]12O,> 128 µg/mL
2,C[C@H]1O[C@@H]2O[C@@H]3C4C(=O)c5cccc(O)c5C(=O)C4O[C@]3(C)[C@@]21O (some centres undefined),64 µg/mL
3,CC(C)Cc1nc([C@H](C)C(=O)O)c(C(C)C)n(O)c1=O,> 128 µg/mL

# Tested on: Pseudomonas aeruginosa
# Assay: Antibacterial activity against Pseudomonas aeruginosa ATCC 9027 assessed as inhibition of visible bacterial growth incubated for 18 hrs by CLSI protocol based assay
# Assay type: functional
row,SMILES,MIC
1,C[C@H]1O[C@]12[C@@H](O)O[C@H]1[C@]2(C)O[C@]2(O)C(=O)c3c(O)cccc3C(=O)[C@@]12O,> 128 µg/mL
2,C[C@H]1O[C@@H]2O[C@@H]3C4C(=O)c5cccc(O)c5C(=O)C4O[C@]3(C)[C@@]21O (some centres undefined),> 128 µg/mL
3,CC(C)Cc1nc([C@H](C)C(=O)O)c(C(C)C)n(O)c1=O,> 128 µg/mL

# Tested on: Listeria monocytogenes
# Assay: Antibacterial activity against Listeria monocytogenes ATCC19111 assessed as inhibition of visible bacterial growth incubated for 18 hrs by CLSI protocol based assay
# Assay type: functional
row,SMILES,MIC
1,C[C@H]1O[C@]12[C@@H](O)O[C@H]1[C@]2(C)O[C@]2(O)C(=O)c3c(O)cccc3C(=O)[C@@]12O,128 µg/mL
2,C[C@H]1O[C@@H]2O[C@@H]3C4C(=O)c5cccc(O)c5C(=O)C4O[C@]3(C)[C@@]21O (some centres undefined),2 µg/mL
3,CC(C)Cc1nc([C@H](C)C(=O)O)c(C(C)C)n(O)c1=O,128 µg/mL

# Tested on: Staphylococcus aureus
# Assay: Antibacterial activity against methicillin-resistant Staphylococcus aureus clinical isolate 6B assessed as inhibition of visible bacterial growth incubated for 18 hrs by CLSI protocol based assay
# Assay type: functional
row,SMILES,MIC
1,C[C@H]1O[C@]12[C@@H](O)O[C@H]1[C@]2(C)O[C@]2(O)C(=O)c3c(O)cccc3C(=O)[C@@]12O,> 128 µg/mL
2,C[C@H]1O[C@@H]2O[C@@H]3C4C(=O)c5cccc(O)c5C(=O)C4O[C@]3(C)[C@@]21O (some centres undefined),4 µg/mL
3,CC(C)Cc1nc([C@H](C)C(=O)O)c(C(C)C)n(O)c1=O,128 µg/mL

# Tested on: Staphylococcus aureus
# Assay: Antibacterial activity against methicillin-resistant Staphylococcus aureus clinical isolate 9B assessed as inhibition of visible bacterial growth incubated for 18 hrs by CLSI protocol based assay
# Assay type: functional
row,SMILES,MIC
1,C[C@H]1O[C@]12[C@@H](O)O[C@H]1[C@]2(C)O[C@]2(O)C(=O)c3c(O)cccc3C(=O)[C@@]12O,> 128 µg/mL
2,C[C@H]1O[C@@H]2O[C@@H]3C4C(=O)c5cccc(O)c5C(=O)C4O[C@]3(C)[C@@]21O (some centres undefined),4 µg/mL
3,CC(C)Cc1nc([C@H](C)C(=O)O)c(C(C)C)n(O)c1=O,128 µg/mL

# Tested on: Micrococcus luteus
# Assay: Antibacterial activity against Micrococcus luteus ATCC 9341 assessed as inhibition of visible bacterial growth incubated for 18 hrs by CLSI protocol based assay
# Assay type: functional
row,SMILES,MIC
1,C[C@H]1O[C@]12[C@@H](O)O[C@H]1[C@]2(C)O[C@]2(O)C(=O)c3c(O)cccc3C(=O)[C@@]12O,> 128 µg/mL
2,C[C@H]1O[C@@H]2O[C@@H]3C4C(=O)c5cccc(O)c5C(=O)C4O[C@]3(C)[C@@]21O (some centres undefined),8 µg/mL
3,CC(C)Cc1nc([C@H](C)C(=O)O)c(C(C)C)n(O)c1=O,64 µg/mL

# Reference: ChEMBL document CHEMBL5120847, “Enceleamycins A-C, Furo-Naphthoquinones from Amycolatopsis sp. MCC0218: Isolation, Structure Elucidation, and Antimicrobial Activity” (2022)
